System: NF-κB
Experiment: NF-κB luciferase reporter assay in LPS-stimulated RAW 264.7 macrophages
Format: cell-based
Details: Mus musculus, RAW264.7; RAW 264.7 cells stably expressing 3× NFκB response element luciferase reporter; 2 hour pretreatment, 200 ng/ml LPS for 3 hours; 6 dose point titrations in triplicate
Procedure: RAW 264.7 cells stably expressing a 3× NFκB response element-drive luciferase reporter were seeded into 96 well plates in sera-free medium (Optimen) 18 hours prior to compound application. Compounds of the invention were prepared by first making 100 mM stock solutions in EtOH. Stock solutions were then diluted 1:100 in low LPS FBS (Gemini BenchMark 100-106), mixed vigorously and allowed to incubate at room temperature for 30 minutes. 1:2 serial dilutions were then made in FBS supplemented with 1% EtOH, mixed vigorously, and again allowed to incubate at room temperature for 30 minutes before adding to RAW 264.7 reporter cells (final concentrations: 10% FBS, 100 uM highest compound dilution, 0.1% EtOH) for a 2 hour pretreatment prior to stimulation with LPS. Cells were then stimulated with 200 ng/ml LPS or vehicle control for 3 hours in the presence of the compounds of the invention. A set of six vehicles was left unstimulated with LPS in order to measure the assay floor. […] After the 3 h incubation period with LPS, cell viability was measured by reading fluorescence (excitation 550 nm, emission 595 nm) with a Perkin Elmer Victor V plate reader. […] Luciferase activity was measured with the Perkin Elmer Victor V plate reader. NF-κB activity was expressed as a percent of the vehicle control wells (stimulated with LPS). […]

IC50: 18 µM
Structure (SMILES): CC/C=C\C/C=C\C/C=C\C/C=C\C/C=C\C/C=C\CCC(=O)N1C[C@H](C)C[C@@](C)(O)[C@H](O)[C@@H](C)[C@H](O)[C@@H](C)C(=O)O[C@H](CC)[C@@](C)(O)[C@H](O)[C@H]1C [Ia-3, (2R,3S,4R,5R,8R,10R,11R,12S,13S,14R)-6-((4Z,7Z,10Z,13Z,16Z,19Z)-docosa-4,7,10,13,16,19-hexaenoyl)-2-ethyl-3,4,10,11,13-pentahydroxy-3,5,8,10,12,14-hexamethyl-1-oxa-6-azacyclopentadecan-15-one]

From patent US20130045939A1, “FATTY ACID MACROLIDE DERIVATIVES AND THEIR USES” (CATABASIS PHARMACEUTICALS, INC., priority 2010, published 2013)
